Laboratory results published in patent US9993492B2, “Lysophospholipids and lysophospholipid analogues against honeybee brood diseases” (University of Graz, priority 2013, dated 2018).
Read-outs that look alike come from different tables or passages of the source.

What was measured:
honeybee larvae = type: in vivo; settings: for Ndead larvae total: days 1-7; for toxicity to honeybee larvae (footnote b): in vivo
Protocol: First instar larvae were transferred into plastic queen cups and fed the following diets: On the first day 10 μL of diet containing 6% glucose, 6% fructose, 1% yeast extract and 50% royal jelly were fed. Test substances (1-O-oleoyl-sn-glycero-3-phosphocholine (oleoyl-LPC), stearic acid, lysophosphatidylinositol and linoleic acid) were added to the first diet in amounts of 0.5 to 10 μg/larvae. For infection with spores of Paenibacillus larvae, larvae were grafted into 5 μL of diet containing test substances and subsequently 5 μL of diet with about 50 added Pl spores were given. Larvae were not fed on the second day to assure the consumption of the given diet. On the third day 20 μL of diet containing 7.5% glucose, 7.5% fructose, 1.5% yeast extract and 50% royal jelly were fed. Amounts of 30, 40 and 60 μL of diet composed of 9% glucose, 9% fructose, 2% yeast extract and 50% royal jelly were fed on the 4th, 5th and 6th day (method modified after Aupinel et al. [Aupinel et al. 2005. Bull Insectol 58:107-111]. Larvae were incubated at 34.5° C. and 95% relative humidity which was reduced to 80% on day 7. The mortality was checked daily for the first 7 days and when individuals emerged from queen cups at day 18 after the transfer into cups. To reduce the time for sporulation of Pl in the lab for security reasons, infection tests with Pl spores were stopped at day 7 with some experiments extend to day 12.
Larvae were fed according to a slightly modified rearing method of Aupinel et al., (2005). Larvae were fed for 6 days with different amounts of diets which always contained 50% of an aqueous solution (A, B, C) and 50% royal jelly (w/w). The solutions consisted of yeast extract (A=2%, B=3%, C=4%), glucose and fructose (A=12%, B=15%, C=18% each). 50 g portions of royal jelly (purchased from the Styrian school of beekeepers) were freeze stored at −20° C. Once a day all components of the needed diet were mixed freshly, warmed and fed to the larvae with a micro-pipette. On day 1 and 2 each larva was fed with 10 μL of diet A, on day three with 20 μL of diet B, on day four (30 μL), five (40 μL) and six (50 μL) with diet C. This way, each larva was supported with a total amount of 160 μL of food. The test compounds (see Table 4) were added each at the respective concentration on day 1, i.e. stearic acid (10 μg/larva), lysophosphatidylinositol (5 μg/larva), linoleic acid (12 μg/larva) and oleyol-LPC (10 μg/larva). Each larva was checked for its state of health under the binocular before feeding. A larva was defined healthy when movements of spiracles could be observed and it was shiny and plump. Cups with dead larvae were removed from the plate to prevent infections. To avoid microbial contamination, feeding took place under a laminar flow. Larvae were incubated at 34.5° C. and 90% RH. The mortality rates of the larvae are given below in table 4.1.

Melissococcus plutonius = test: Antimicrobial assay in liquid Basal Medium against Melissococcus plutonius (MIC); type: cell-based; settings: for MIC (ppm) / MIC: M. pl. in BM liquid medium, OE at 600 nm after 5 days; for inhibitory / antibacterial activity against M. pl. (in words): in vitro
Protocol: M. pl. was cultured in liquid Basal Medium (BM) for 4 days at 35° C. and from here serial dilutions were carried out to estimate CFU/ml by plating onto BM agar plates. 5 days later CFU were count and concentration was estimated to be 3.46*10^6 CFU/ml. For the antimicrobial assay, an inoculum of 50 μl of the liquid culture is added to 1 mL of BM liquid medium. A set of different substances were tested in different concentrations (2, 5 and 10 ppm) in order to find out their inhibitory effect against M. pl growth. For substances tested, concentration applied and results see table 1.2. Three replicates per substance were included in the experiment. 5 days after the experiment was started OE (optical extinction) was measured at 600 nm.

Paenibacillus larvae = test: Antimicrobial assay in BHI liquid medium, vegetative forms of Paenibacillus larvae (MIC); type: cell-based; settings: for inhibitory / antibacterial activity against Pl (in words): in vitro; for MIC (ppm) / MIC: vegetative forms of Pl, liquid medium
Protocol: For the evaluation of certain fatty acids and phospholipids, overnight cultures of vegetative forms of Pl were used (for results see Table 1.1).
(§1) As test organisms, several different strains of Paenibacillus larvae were used.
(§2) Overnight cultures of the vegetative forms of bacteria were prepared in BHI (brain heart infusion) liquid medium.
From these overnight cultures, an inoculum of 50 μl is added to 1.0 ml of BHI liquid medium to perform the bacterial test in liquid medium. The compound 1-O-oleoyl-sn-glycero-3-phosphocholine (oleoyl-LPC) together with a positive control was then added at concentrations of 2, 5 and 10 ppm and the test tubes were incubated for 24 h at 34.5° C. Then, the extinction of the solution was measured photometrically.

[1] = tested on: Paenibacillus larvae (Eric II test strain); test: Inhibition zone test on Columbia agar; type: cell-based; settings: amount 30 μg; 24 h, 34.5° C.
Protocol: as §1, §2
For the inhibition zone test, 500 μL of overnight culture were added to 15-20 mL of Columbia agar, mixed and poured onto a petri dish. After the agar solidified, either punched wholes are filled with different amounts of test compounds or test compounds are pipetted on paper discs (5 mm Ø). The plate is then incubated for 24 h (34.5° C.) and zones of inhibition are measured and given in mm. Lactic acid and penicillin G were used as positive controls.
E II—Eric II (test strain of Pl)

[2] = tested on: spores of Paenibacillus larvae; test: Spore assay in BHI liquid medium with plating for CFU; type: cell-based; settings: lowest investigated dose (5 ppm); 114.6±28.4 spores per vial; 4 and 6 days
Protocol: A stock solution containing spores at a known concentration is used to inoculate c. 100 spores/mL medium. This assay is carried out in 20 mL cultivation tubes containing 1.0 mL of BHI (brain heart infusion) liquid medium. To this medium containing c. […] spores, test compounds are added at different concentrations (e.g., 2, 5 and 10 ppm), together with positive control (penicillin G at 5 ppm) and blank control.
To verify inoculation with c. 100 spores/mL, tubes containing BHI+spores are plated out immediately on agar plates to assess the number of colony forming units (CFU) after 6 days of incubation at 34.5° C.
For the control of viability of the spores, the turbidity (due to germination of spores and formation of vegetative forms) of tubes containing BHI+spores is evaluated on day 4.
For the test probes, bacterial growth is evaluated on day 4 and 6. For those tubes which are negative for bacterial growth, the whole medium (c. 1 mL) is plated onto agar plates and evaluated for CFUs after 2 and 6 days of incubation. CFUs visible after two days result from vegetative forms, while CFUs appearing after […] stem from spores.
The results of these tests allow identifying whether the tested compounds have an effect on spore germination in liquid medium and the viability of the spores as assessed by their germination on agar plates. […]

[3] = LPI 5 μg/larva added on day 1, Nlarvae 96
[4] = Melissococcus plutonius, 120 h, read-out: MIC
[5] = Melissococcus plutonius, 120 h, read-out: MIC (ppm)
[6] = Paenibacillus larvae, 24 h, read-out: MIC (ppm)
[7] = Paenibacillus larvae, read-out: MIC
[8] = stearic acid 10 μg/larva added on day 1, Nlarvae 96
[9] = linoleic acid 12 μg/larva added on day 1, Nlarvae 48

Compound: L-α-lysophosphatidylinositol
- Ndead larvae day 1 (honeybee larvae; [3]): 0
- Ndead larvae day 2 (honeybee larvae; [3]): 0
- Ndead larvae day 3 (honeybee larvae; [3]): 0
- Ndead larvae day 4 (honeybee larvae; [3]): 0
- Ndead larvae day 5 (honeybee larvae; [3]): 1
- Ndead larvae day 6 (honeybee larvae; [3]): 1
- Ndead larvae day 7 (honeybee larvae; [3]): 2
- Ndead larvae total (honeybee larvae; [3]): 4
- MIC (ppm) (Melissococcus plutonius): >10 ppm
- MIC (Melissococcus plutonius; read-out: MIC): >15 µM
- inhibitory / antibacterial activity against M. pl. (in words) (Melissococcus plutonius): did not show significant inhibitory activity
- inhibitory / antibacterial activity against Pl (in words) (Paenibacillus larvae): did not show significant inhibitory activity
- MIC (ppm) (Paenibacillus larvae): >50 ppm
- MIC (Paenibacillus larvae; read-out: MIC): >80 µM

Compound: CCCCCCCCCCCCCCCCCCOP(=O)([O-])OC1CC[N+](C)(C)CC1 [perifosine, 1,1-dimethylpiperidinium-4-yl octadecyl phosphate]
- MIC (Melissococcus plutonius; [4]): 4.3 µM
- MIC (Melissococcus plutonius; [5]): 2 µg/mL
- inhibitory / antibacterial activity against M. pl. (in words) (Melissococcus plutonius): good in vitro Pl and M. pl. inhibitory activity
- MIC (Paenibacillus larvae; [6]): 2 µg/mL
- MIC (Paenibacillus larvae; [7]): 4.3 µM
- inhibitory / antibacterial activity against Pl (in words) (Paenibacillus larvae): good in vitro Pl and M. pl. inhibitory activity

Compound: CCCCCCCCCCCCCCCCCC(=O)O [stearic acid]
- Ndead larvae day 1 (honeybee larvae; [8]): 0
- Ndead larvae day 2 (honeybee larvae; [8]): 0
- Ndead larvae day 3 (honeybee larvae; [8]): 1
- Ndead larvae day 4 (honeybee larvae; [8]): 0
- Ndead larvae day 5 (honeybee larvae; [8]): 1
- Ndead larvae day 6 (honeybee larvae; [8]): 3
- Ndead larvae day 7 (honeybee larvae; [8]): 1
- Ndead larvae total (honeybee larvae; [8]): 6
- MIC (Melissococcus plutonius; [4]): > 35 µM
- MIC (Melissococcus plutonius; [5]): > 10 µg/mL
- MIC (Paenibacillus larvae; [6]): > 20 µg/mL
- MIC (Paenibacillus larvae; [7]): > 70 µM

Compound: lysophosphatidylcholine
- larval mortality compared with control group (honeybee larvae; single dose fed on day one, up to 1-2% of fresh body weight of larvae younger than one day, assessed on day 7): no higher mortality than found in the control group
- MIC (ppm) (Melissococcus plutonius): 2-5 ppm
- MIC (ppm) (Paenibacillus larvae): 2-5 ppm

Compound: CCCCCCCC/C=C\CCCCCCCC(=O)O [oleic acid]
- toxicity to honeybee larvae (footnote b) (honeybee larvae): ^btoxic to honeybee larvae
- MIC (Melissococcus plutonius; [4]): 3.5 µM
- MIC (Melissococcus plutonius; [5]): 1 µg/mL
- MIC (Paenibacillus larvae; [6]): 1 µg/mL
- MIC (Paenibacillus larvae; [7]): 3.5 µM

Compound: CCCCC/C=C\C/C=C\CCCCCCCC(=O)O [linoleic acid]
- toxicity to honeybee larvae (footnote b) (honeybee larvae): ^btoxic to honeybee larvae
- Ndead larvae day 1 (honeybee larvae; [9]): 0
- Ndead larvae day 2 (honeybee larvae; [9]): 18
- Ndead larvae day 3 (honeybee larvae; [9]): 2
- Ndead larvae day 4 (honeybee larvae; [9]): 3
- Ndead larvae day 5 (honeybee larvae; [9]): 1
- Ndead larvae day 6 (honeybee larvae; [9]): 1
- Ndead larvae day 7 (honeybee larvae; [9]): 1
- Ndead larvae total (honeybee larvae; [9]): 26
- MIC (Melissococcus plutonius; [4]): 3.6 µM
- MIC (Melissococcus plutonius; [5]): 1 µg/mL
- MIC (Paenibacillus larvae; [6]): 0.5 µg/mL
- MIC (Paenibacillus larvae; [7]): 1.8 µM

Compound: CC(O)C(=O)O (stereo not shown) [LA (C+), lactic acid]
- Inhibition zone (mm) [1]: 5 mm

Compound: CCCCCCCCCCCCCCCCOP(=O)([O-])OCC[N+](C)(C)C [miltefosine, hexadecylphosphocholine]
- MIC (Melissococcus plutonius; [4]): 4.9 µM
- MIC (Melissococcus plutonius; [5]): 2 µg/mL
- inhibitory / antibacterial activity against M. pl. (in words) (Melissococcus plutonius): good in vitro Pl and M. pl. inhibitory activity
- MIC (Paenibacillus larvae; [6]): 2 to 5 µg/mL
- MIC (Paenibacillus larvae; [7]): 7.4 µM
- inhibitory / antibacterial activity against Pl (in words) (Paenibacillus larvae): good in vitro Pl and M. pl. inhibitory activity
- killing of vegetative forms upon germination of spores [2]: all vegetative forms are killed

Compound: CCCCCCCCCCCCCCCCCC(=O)OC[C@@H](O)COP(=O)([O-])OCC[N+](C)(C)C [1-O-stearoyl-sn-glycero-3-phosphocholine]
- MIC (Melissococcus plutonius; [4]): > 5.7 µM
- MIC (Melissococcus plutonius; [5]): 3 µg/mL
- MIC (Paenibacillus larvae; [6]): 5 µg/mL
- MIC (Paenibacillus larvae; [7]): > 9.5 µM
- inhibitory / antibacterial activity against Pl (in words) (Paenibacillus larvae): good in vitro Pl inhibitory activity

Compound: CCCCCCCCCCCCCCCC(=O)O [palmitic acid]
- MIC (Melissococcus plutonius; [4]): > 40 µM
- MIC (Melissococcus plutonius; [5]): > 15 µg/mL
- MIC (Paenibacillus larvae; [6]): > 20 µg/mL
- MIC (Paenibacillus larvae; [7]): > 78 µM
